Source: patent publication US9273285B1, “Shorter colony-forming cell assay” (STEMCELL TECHNOLOGIES INC., priority 2008, dated 2016)

B1: FLT-3 Ligand (protein, UniProt P49771 27-235, looked up)
Fms-related tyrosine kinase 3 …: TQDCSFQHSPISSDFAVKIRELSDYLLQDYPVTVASNLQDEELCGGLWRLVLAQRWMERLKTVAGSKMQGLLERVNTEIHFVTKCAFQPPPSCLRFVQTNISRLLQETSEQLVALKPWITRQNFSRCLELQCQPDSSTLPPPWSPRPLEATAPTAPQPPLLLLLLLPVGLLLLAAAWCLHWQRTRRRTPRPGEQVPPVPSPQDLLLVEH
notes: cytokine added to the culture medium

Tested on: Human CB mononuclear cells
Assay: Hematopoietic colony-forming cell (CFC) assay in methylcellulose-based MethoCult media
Design: key to Size, Morphology ranking: Ranking on the basis of colony size and morphology: 1 is best; 4 is worst
Details: for Colony numbers as percentage of colony numbers in medium without extra cytokines, Average: average of experiments
Description: Frozen ficolled cord blood mononuclear cells were thawed, nucleated cells were counted by microscopy using a hemacytometer after dilution in 3% acetic acid to lyse mature erythrocytes. The cells were diluted with Iscove's MDM to 10-fold the desired cell concentration. 0.4 mL of the cell suspensions were added into an aliquot of test MethoCult® medium (4 mL) and mixed by vortexing. 1.1 mL of each cell/medium mixture was dispensed into triplicate 35 mm culture dishes using 3 mL syringes with blunt end needles, with 1.1 mL of medium per dish. All cultures were incubated for 4, 7, 10 or the standard 14 days at 37° C., 5% CO2, 100% humidity. Colonies were enumerated and classified by bright-field microscopy into the following categories based on size and morphology: CFU-E, BFU-E, CFU-GM, CFU-GEMM (StemCell Technologies, Colony Atlas). […]
Methocult® H4435 medium, which contains the 6 cytokines IL-3, IL-6, SCF, GM-CSF, G-CSF and EPO, was supplemented with Zinc Sulphate at final concentrations 2, 10 and 20 μM and 4 different CB samples were cultured for 7 and 14 days as described in Example 1. […] In one experiment, CFU-GM colonies were larger in the presence of zinc, whereas BFU-E colony size was unchanged.
To examine if adding extra cytokines can further increase colony growth, culture medium as in Example 5 was supplemented with FL, TPO or both. Cultures were set up using Cord Blood cells and colonies were counted after 7 and 14 days. […] In three of the four experiments colony size and morphology after 14 days were very similar whether or not TPO and/or FL were present in the medium. In one experiment (Exp 4 in Table 2) colonies were slightly larger in cultures without TPO and FL compared to cultures with TPO and FL. […]

[1] = Exp. 1, 7 days, added to MethoCult medium with IL-3, IL-6, G-CSF, GM-CSF, SCF, EPO, cord blood

| Molecule | Colony numbers as percentage of colony numbers in medium without extra cytokines (Exp. 1, 7 days) [%] | Size, Morphology ranking (Exp. 1, 7 days) | Colony numbers per 10^5 cells plated [1] [per 10^5 cells plated] | Colony numbers as percentage of colony numbers in medium without extra cytokines (Exp. 1, 14 days) [%] | Colony numbers per 10^5 cells plated (Exp. 1, 14 days) [per 10^5 cells plated] | Size, Morphology ranking (Exp. 1, 14 days) | Colony numbers as percentage of colony numbers in medium without extra cytokines (Exp. 2, 7 days) [%] | Colony numbers per 10^5 cells plated (Exp. 2, 7 days) [per 10^5 cells plated] | Size, Morphology ranking (Exp. 2, 7 days) | Colony numbers as percentage of colony numbers in medium without extra cytokines (Exp. 2, 14 days) [%] | Colony numbers per 10^5 cells plated (Exp. 2, 14 days) [per 10^5 cells plated] | Size, Morphology ranking (Exp. 2, 14 days) | Colony numbers as percentage of colony numbers in medium without extra cytokines (Exp. 3, 7 days) [%] | Colony numbers per 10^5 cells plated (Exp. 3, 7 days) [per 10^5 cells plated] | Size, Morphology ranking (Exp. 3, 7 days) | Colony numbers as percentage of colony numbers in medium without extra cytokines (Exp. 3, 14 days) [%] | Colony numbers per 10^5 cells plated (Exp. 3, 14 days) [per 10^5 cells plated] | Size, Morphology ranking (Exp. 3, 14 days) | Colony numbers as percentage of colony numbers in medium without extra cytokines, Average (7 days) [%] | Colony numbers as percentage of colony numbers in medium without extra cytokines, Average (14 days) [%] | also measured |
| --- | --- | --- | --- | --- | --- | --- | --- | --- | --- | --- | --- | --- | --- | --- | --- | --- | --- | --- | --- | --- | --- |
| O=S(=O)([O-])[O-].[Zn+2] [Zinc Sulphate] | – | – | – | – | – | – | – | – | – | – | – | – | – | – | – | – | – | – | – | – | total colony numbers on day 7 and 14 relative to media containing no Zinc, or 2 μM of Zinc (10 or 20 μM in Methocult H4435, 4 CB samples (FIG. 4)): increased; Effect on colony size after 14 days of culture (in Methocult H4435, 3 of the 4 experiments): no effects of zinc on colony size was observed; Colony size and morphology on day 7 compared to zinc-free medium (in Methocult H4435, particularly at 10 and 20 uM, three of 4 experiments): the colonies were larger, and more evenly spread out |
| Thrombopoietin [TPO] | 78 | 2 | 210 | 93 | 287 | 1 | 102 | 393 | 1 | 102 | 480 | 1 | 107 | 317 | 2 | 107 | 360 | 1 | 95 | 101 | – |
| B1 | 99 | 2 | 267 | 110 | 337 | 1 | 107 | 413 | 2 | 99 | 463 | 1 | 99 | 293 | 3 | 94 | 317 | 1 | 101 | 101 | – |
